Source: US10144730B2, “Inhibitors of c-Jun-N-terminal kinase (JNK)” (Dana-Farber Cancer Institute, Inc., priority 2011, dated 2018)

How the values were obtained:
c-Jun phosphorylation = test: Western blot of anisomycin-stimulated phosphorylation in HEK293-IL1R cells; type: cell-based
Description: FIGS. 16A and 16B depict Western blot results. […] Cell lysates were prepared, resolved by SDS-PAGE, and p-c-Jun (Ser63) and p-JNK were monitored by Western blot.
HEK-293 cells stably expressing Interleukin Receptor 1 (HEK293-IL1R) were cultured in Dulbecco's Modified Eagle's medium (DMEM) supplemented with 10% FBS, 2 mM glutamine and 1× antimycotic/antibiotic solution. Cells were serum starved for 18 h before incubation with DMSO or different inhibitors, stimulated with 2 μM anisomycin (Sigma) for 1 h, and lysates were clarified by centrifugation for 10 min at 16000 g and 4° C.
Rabbit polyclonal antibodies against total pan JNK isoforms ((#9252), phospho-pan JNK isoforms (Thr183/Tyr185), (#4668), total p38 (#9212) or phospho-p38 MAPK (Thr180/Tyr182), (4631 resp.), total c-Jun (#9165), phospho-c-Jun (Ser63) (#9261), and phospho-MSK1 (Ser376) (#9591) were from Cell Signalling technology.
Cell lysates (30 μg) were resolved by electrophoresis on SDS polyacrylamide gels (10%) or Novex 4-12% gradient gels, and electroblotted to nitrocellulose membranes. Membranes were blocked with 5% skimmed milk (w/v) in 50 mM Tris/HCl (pH 7.5) 0.15 M NaCl, and 0.1% (v/v) Tween (TBST Buffer). Primary antibodies were used at a concentration of 1 μg/ml, diluted in 5% skimmed milk in TBST, and incubated overnight at 4° C. […]

JNK2 = JNK2 (Homo sapiens, UniProt P45984); test: Biochemical JNK2 kinase inhibition (Z'-lyte format); settings: Table 2
HIPK4 = biological target: T1, HIPK4 (Homo sapiens, UniProt Q8NE63); test: HIPK4 follow-up enzymatic assay; type: biochemical; settings: follow-up enzymatic assay (FIG. 12)
T1 sequence (Q8NE63 1-616): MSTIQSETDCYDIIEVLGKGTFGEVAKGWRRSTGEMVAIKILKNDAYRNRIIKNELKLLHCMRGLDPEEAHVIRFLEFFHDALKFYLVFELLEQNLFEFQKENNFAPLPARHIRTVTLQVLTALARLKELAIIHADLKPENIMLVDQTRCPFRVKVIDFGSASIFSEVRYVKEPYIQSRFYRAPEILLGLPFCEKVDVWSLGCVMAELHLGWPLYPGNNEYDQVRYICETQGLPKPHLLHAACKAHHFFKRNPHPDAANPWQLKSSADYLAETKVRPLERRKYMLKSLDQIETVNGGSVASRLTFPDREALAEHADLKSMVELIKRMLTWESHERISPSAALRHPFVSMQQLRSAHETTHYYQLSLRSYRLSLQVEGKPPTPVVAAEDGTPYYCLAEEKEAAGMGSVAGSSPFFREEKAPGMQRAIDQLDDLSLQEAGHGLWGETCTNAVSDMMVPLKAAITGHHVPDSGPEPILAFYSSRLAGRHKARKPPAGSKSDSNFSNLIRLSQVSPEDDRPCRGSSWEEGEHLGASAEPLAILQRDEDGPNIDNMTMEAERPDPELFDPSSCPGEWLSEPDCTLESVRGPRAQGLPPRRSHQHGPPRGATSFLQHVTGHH
Description: This high in vitro selectivity however differed markedly from the large number of targets detected by KiNativ.

[1] = biological target: panel of 442 distinct kinases; test: KINOMEscan kinase-binding panel; settings: screening concentration of 1 μM

Chain of JNK2 (P45984 whole entry): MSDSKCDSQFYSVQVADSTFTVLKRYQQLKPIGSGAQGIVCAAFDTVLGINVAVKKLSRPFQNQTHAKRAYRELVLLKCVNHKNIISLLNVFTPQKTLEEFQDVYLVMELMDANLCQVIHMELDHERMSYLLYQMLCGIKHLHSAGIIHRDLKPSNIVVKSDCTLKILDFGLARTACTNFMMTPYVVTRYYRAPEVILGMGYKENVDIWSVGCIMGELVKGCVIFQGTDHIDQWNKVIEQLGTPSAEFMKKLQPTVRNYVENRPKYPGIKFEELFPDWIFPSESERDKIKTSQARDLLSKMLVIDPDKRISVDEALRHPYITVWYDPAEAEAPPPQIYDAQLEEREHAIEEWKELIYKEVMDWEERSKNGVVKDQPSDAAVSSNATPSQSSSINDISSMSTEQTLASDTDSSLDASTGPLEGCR

SMILES | time for inhibition of JNK in cells to reach completion (c-Jun phosphorylation; HEK293-ILR1 cells (FIGS. 16A and 16B)) | reversal of inhibition of c-Jun phosphorylation after removal of inhibitor (washout) (c-Jun phosphorylation; HEK293-ILR1 cells, three hours treatment then washout) | IC50 (JNK2) [nM] | IC50 (HIPK4) [nM] | KINOMEscan S score (ratio number of kinases inhibited more than 90 percent) [1]
Cc1cc(NC(=O)c2cccc(NC(=O)/C=C/CN(C)C)c2)ccc1Nc1nccc(-c2cccnc2)n1 [JNK-IN-8] | approximately 3 hours | not reversed |  |  | 
CN(C)C/C=C/C(=O)Nc1cccc(C(=O)Nc2ccc(Nc3nccc(/C(C#N)=C4\Nc5ccccc5S4)n3)cc2)c1 [JNK-IN-12] |  |  | 11.3 | 57.1 | 0.025
